Laboratory results taken from article PMC3461162 (British Journal of Cancer, 2012).

Columns and labels:
[1] = Urine pharmacokinetics after single dose; assay type: in vivo, human; settings: for CL renal: human, urine, oral, CLR, Amean (n) (range); for fe (0–24), dose fraction excreted unchanged in the urine, Amean (n) (range): zero to 24 h post dose
[2] = Plasma pharmacokinetics, non-compartmental analysis; assay type: in vivo, human; settings: for AUC(0-t) / AUC / Cmax / Vd/F / half-life / Tmax: human, plasma, oral; for AUC(0-t): AUC0–12, Gmean (range); for Vd/F: Vss/F, Amean (range)
[3] = following BID dosing, 10 mg BID solution
[4] = following BID dosing, 20 mg BID solution
[5] = following BID dosing, 40 mg BID solution
[6] = following BID dosing, 40 mg BID tablet
[7] = following BID dosing, 60 mg BID tablet
[8] = following BID dosing, 90 mg BID tablet
[9] = following BID dosing, 120 mg BID tablet
[10] = 10 mg, single dose, 10 mg solution (n=5)
[11] = 20 mg, single dose, 20 mg solution (n=3)
[12] = 40 mg, single dose, 40 mg solution (n=6)
[13] = 40 mg, single dose, 40 mg tablet (n=7)
[14] = 60 mg, single dose, 60 mg tablet (n=7)
[15] = 90 mg, single dose, 90 mg tablet (n=11)
[16] = 120 mg, single dose, 120 mg tablet (n=10)

## COc1ccc(-c2ccc3c(N4CCOC[C@@H]4C)nc(N4CCOC[C@@H]4C)nc3n2)cc1CO [AZD8055]
[1]; all dose levels, first 24 h following the single dose
  Dose excreted unchanged in the urine: < 0.25%
[1]; 10 mg, single dose, 10 mg solution
  CL renal: 1.95 mL/min
[1]; 20 mg, single dose, 20 mg solution
  CL renal: 1.29 mL/min
[1]; 40 mg, single dose, 40 mg solution
  CL renal: 1.78 mL/min
[1]; 40 mg, single dose, 40 mg tablet
  CL renal: 3.68 mL/min
[1]; 60 mg, single dose, 60 mg tablet
  CL renal: 2.67 mL/min
[1]; 90 mg, single dose, 90 mg tablet
  CL renal: 1.75 mL/min
[1]; 120 mg, single dose, 120 mg tablet
  CL renal: 1.68 mL/min
[1]; single dose
  Renal clearance: low renal clearance
[1]; single dose, 10 mg solution
  fe (0–24), dose fraction excreted unchanged in the urine, Amean (n) (range): 0.0248 (4) (0.0121–0.0438) %
[1]; single dose, 20 mg solution
  fe (0–24), dose fraction excreted unchanged in the urine, Amean (n) (range): 0.0114 (3) (0.00512–0.0207) %
[1]; single dose, 40 mg solution
  fe (0–24), dose fraction excreted unchanged in the urine, Amean (n) (range): 0.0227 (5) (0.00907–0.0423) %
[1]; single dose, 40 mg tablet
  fe (0–24), dose fraction excreted unchanged in the urine, Amean (n) (range): 0.0881 (6) (0.0043–0.224) %
[1]; single dose, 60 mg tablet
  fe (0–24), dose fraction excreted unchanged in the urine, Amean (n) (range): 0.0222 (7) (0.00289–0.0712) %
[1]; single dose, 90 mg tablet
  fe (0–24), dose fraction excreted unchanged in the urine, Amean (n) (range): 0.0231 (9) (0.00155–0.0704) %
[1]; single dose, 120 mg tablet
  fe (0–24), dose fraction excreted unchanged in the urine, Amean (n) (range): 0.0375 (7) (0.00237–0.151) %
[2]; BID dosing, solution formulation (10–40 mg)
  Dose proportionality of exposure: proportional increase in exposure
[2]; BID dosing, tablet formulation (40–120 mg)
  Dose proportionality of exposure: greater than proportional increase with increasing dose
[2]; [3]
  CLss/F, Amean (n) (range): 439 (4) (352–521) l h^−1
  Cmin ss, Gmean (n) (range): 0.114 (3) (0.057–0.189) ng ml^−1
  T c (temporal change, linearity factor), Gmean (n) (range): 1.03 (4) (0.839–1.48)
[2]; [4]
  CLss/F, range only (Amean NC, n=2): NC (2) (268–426) l h^−1
  Cmin ss, range only (Gmean NC, n=1): NC (1) (0.228–0.228) ng ml^−1
  T c (temporal change, linearity factor), range only (Gmean NC, n=2): NC (2) (1.61–2.07)
[2]; [5]
  CLss/F, Amean (n) (range): 369 (6) (278–492) l h^−1
  Cmin ss, Gmean (n) (range): 0.370 (5) (0.162–0.821) ng ml^−1
  T c (temporal change, linearity factor), Gmean (n) (range): 1.10 (6) (0.539–1.65)
[2]; [6]
  CLss/F, Amean (n) (range): 465 (5) (148–906) l h^−1
  Cmin ss, Gmean (n) (range): 0.959 (5) (0.294–2.71) ng ml^−1
  T c (temporal change, linearity factor), Gmean (n) (range): 0.806 (5) (0.444–1.13)
[2]; [7]
  CLss/F, Amean (n) (range): 483 (6) (92.9–1250) l h^−1
  T c (temporal change, linearity factor), Gmean (n) (range): 1.30 (6) (0.525–2.50)
[2]; [8]
  CLss/F, Amean (n) (range): 856 (4) (457–1630) l h^−1
  Cmin ss, Gmean (n) (range): 0.543 (5) (0.177–3.18) ng ml^−1
  T c (temporal change, linearity factor), Gmean (n) (range): 1.18 (4) (0.831–1.69)
[2]; [9]
  CLss/F, Amean (n) (range): 283 (7) (68.2–494) l h^−1
  Cmin ss, Gmean (n) (range): 3.54 (5) (1.40–41.1) ng ml^−1
  T c (temporal change, linearity factor), Gmean (n) (range): 1.81 (7) (1.09–3.50)
[2]; [10]
  AUC(0-t): 24.1 ng·h/mL
  Vd/F: 884 L
[2]; 10 mg, AUC, Gmean (range), single dose, 10 mg solution (n=5)
  AUC: 24.5 ng·h/mL
[2]; 10 mg, AUCss, Gmean (n) (range), following BID dosing, 10 mg BID solution
  AUC: 23 ng·h/mL
[2]; 10 mg, Cmax ss, Gmean (n) (range), following BID dosing, 10 mg BID solution
  Cmax: 17.3 ng/mL
[2]; 10 mg, Cmax, Gmean (range), single dose, 10 mg solution (n=5)
  Cmax: 16.8 ng/mL
[2]; 10 mg, t1/2, Amean (range), single dose, 10 mg solution (n=5)
  half-life: 2.43 h
[2]; 10 mg, t1/2 ss, Amean (n) (range), following BID dosing, 10 mg BID solution
  half-life: 2.82 h
[2]; 10 mg, tmax ss, Median (n) (range), following BID dosing, 10 mg BID solution
  Tmax: 0.5 h
[2]; 10 mg, tmax, Median (range), single dose, 10 mg solution (n=5)
  Tmax: 0.5 h
[2]; [11]
  AUC(0-t): 43.3 ng·h/mL
  Vd/F: 1050 L
[2]; 20 mg, AUC, Gmean (range), single dose, 20 mg solution (n=3)
  AUC: 43.7 ng·h/mL
[2]; 20 mg, Cmax, Gmean (range), single dose, 20 mg solution (n=3)
  Cmax: 27 ng/mL
[2]; 20 mg, t1/2, Amean (range), single dose, 20 mg solution (n=3)
  half-life: 1.86 h
[2]; 20 mg, tmax, Median (range), single dose, 20 mg solution (n=3)
  Tmax: 0.5 h
[2]; [12]
  AUC(0-t): 99.4 ng·h/mL
  Vd/F: 840 L
[2]; [13]
  AUC(0-t): 124 ng·h/mL
  Vd/F: 762 L
[2]; 40 mg, AUC, Gmean (range), single dose, 40 mg solution (n=6)
  AUC: 101 ng·h/mL
[2]; 40 mg, AUC, Gmean (range), single dose, 40 mg tablet (n=7)
  AUC: 127 ng·h/mL
[2]; 40 mg, AUCss, Gmean (n) (range), following BID dosing, 40 mg BID solution
  AUC: 111 ng·h/mL
[2]; 40 mg, AUCss, Gmean (n) (range), following BID dosing, 40 mg BID tablet
  AUC: 101 ng·h/mL
[2]; 40 mg, Cmax ss, Gmean (n) (range), following BID dosing, 40 mg BID solution
  Cmax: 61.9 ng/mL
[2]; 40 mg, Cmax ss, Gmean (n) (range), following BID dosing, 40 mg BID tablet
  Cmax: 46.1 ng/mL
[2]; 40 mg, Cmax, Gmean (range), single dose, 40 mg solution (n=6)
  Cmax: 70.9 ng/mL
[2]; 40 mg, Cmax, Gmean (range), single dose, 40 mg tablet (n=7)
  Cmax: 72.3 ng/mL
[2]; 40 mg, t1/2, Amean (range), single dose, 40 mg solution (n=6)
  half-life: 2.65 h
[2]; 40 mg, t1/2, Amean (range), single dose, 40 mg tablet (n=7)
  half-life: 2.28 h
[2]; 40 mg, t1/2 ss, Amean (n) (range), following BID dosing, 40 mg BID solution
  half-life: 2.13 h
[2]; 40 mg, t1/2 ss, Amean (n) (range), following BID dosing, 40 mg BID tablet
  half-life: 3.04 h
[2]; 40 mg, tmax ss, Median (n) (range), following BID dosing, 40 mg BID solution
  Tmax: 0.25 h
[2]; 40 mg, tmax ss, Median (n) (range), following BID dosing, 40 mg BID tablet
  Tmax: 1 h
[2]; 40 mg, tmax, Median (range), single dose, 40 mg solution (n=6)
  Tmax: 0.37 h
[2]; 40 mg, tmax, Median (range), single dose, 40 mg tablet (n=7)
  Tmax: 1 h
[2]; [14]
  AUC(0-t): 131 ng·h/mL
  Vd/F: 1770 L
[2]; 60 mg, AUC, Gmean (range), single dose, 60 mg tablet (n=7)
  AUC: 136 ng·h/mL
[2]; 60 mg, AUCss, Gmean (n) (range), following BID dosing, 60 mg BID tablet
  AUC: 178 ng·h/mL
[2]; 60 mg, Cmax ss, Gmean (n) (range), following BID dosing, 60 mg BID tablet
  Cmax: 82.8 ng/mL
[2]; 60 mg, Cmax, Gmean (range), single dose, 60 mg tablet (n=7)
  Cmax: 57.1 ng/mL
[2]; 60 mg, t1/2, Amean (range), single dose, 60 mg tablet (n=7)
  half-life: 2.37 h
[2]; 60 mg, t1/2 ss, Amean (n) (range), following BID dosing, 60 mg BID tablet
  half-life: 2.81 h
[2]; 60 mg, tmax ss, Median (n) (range), following BID dosing, 60 mg BID tablet
  Tmax: 1 h
[2]; 60 mg, tmax, Median (range), single dose, 60 mg tablet (n=7)
  Tmax: 0.5 h
[2]; 90 mg
  Cmax: 70.1 ng/mL
  half-life: 2.36 h
[2]; [15]
  AUC(0-t): 130 ng·h/mL
  Vd/F: 2450 L
[2]; 90 mg, AUC, Gmean (range), single dose, 90 mg tablet (n=11)
  AUC: 134 ng·h/mL
[2]; 90 mg, AUCss, Gmean (n) (range), following BID dosing, 90 mg BID tablet
  AUC: 122 ng·h/mL
[2]; 90 mg, Cmax ss, Gmean (n) (range), following BID dosing, 90 mg BID tablet
  Cmax: 70 ng/mL
[2]; 90 mg, t1/2 ss, Amean (n) (range), following BID dosing, 90 mg BID tablet
  half-life: 2.63 h
[2]; 90 mg, tmax ss, Median (n) (range), following BID dosing, 90 mg BID tablet
  Tmax: 0.5 h
[2]; 90 mg, tmax, Median (range), single dose, 90 mg tablet (n=11), MTD
  Tmax: 0.5 h
[2]; [16]
  AUC(0-t): 280 ng·h/mL
  Vd/F: 1370 L
[2]; 120 mg, AUC, Gmean (range), single dose, 120 mg tablet (n=10)
  AUC: 294 ng·h/mL
[2]; 120 mg, AUCss, Gmean (n) (range), following BID dosing, 120 mg BID tablet
  AUC: 501 ng·h/mL
[2]; 120 mg, Cmax ss, Gmean (n) (range), following BID dosing, 120 mg BID tablet
  Cmax: 355 ng/mL
[2]; 120 mg, Cmax, Gmean (range), single dose, 120 mg tablet (n=10)
  Cmax: 177 ng/mL
[2]; 120 mg, t1/2, Amean (range), single dose, 120 mg tablet (n=10)
  half-life: 3.14 h
[2]; 120 mg, t1/2 ss, Amean (n) (range), following BID dosing, 120 mg BID tablet
  half-life: 2.45 h
[2]; 120 mg, tmax ss, Median (n) (range), following BID dosing, 120 mg BID tablet
  Tmax: 0.5 h
[2]; 120 mg, tmax, Median (range), single dose, 120 mg tablet (n=10)
  Tmax: 0.5 h
[2]; mean t1/2, single and multiple doses across all cohorts
  half-life: 1.7 to 3.1 h
[2]; median tmax, single and multiple doses across all cohorts
  Tmax: ~0.5 h
[2]; oral dosing in patients
  Oral bioavailability: orally bioavailable
[2]; single dose, 90 mg tablet (n=11), MTD
  tmax, Median (range): 1.00 (0.25–4) h
[2]; single dosing, all cohorts
  Dose proportionality of exposure: proportional increases in exposure with increasing dose
